Patent publication US8440646B1 (priority 2006, dated 2013)
Converted amounts (≈) assume the structure as drawn. Where two headings read alike, the source gives them in different places.

Legend:
[1] = system: protein synthesis; details: cited from earlier work
[2] = system: S. pneumoniae 700905; assay: microbe, parasite or virus in culture; format: cell-based; details: Streptococcus pneumoniae
[3] = system: S. aureus MRSA5; assay: microbe, parasite or virus in culture; format: cell-based; details: Staphylococcus aureus
[4] = system: COS-1; details: African green monkey
[5] = system: E. faecalis 29212; assay: microbe, parasite or virus in culture; format: cell-based; details: Enterococcus faecalis
[6] = system: B. anthracis Sterne; assay: microbe, parasite or virus in culture; format: cell-based; details: Bacillus anthracis
[7] = system: B. anthracis Ame; assay: microbe, parasite or virus in culture; format: cell-based; details: Bacillus anthracis
[8] = system: B. anthracis V770; assay: microbe, parasite or virus in culture; format: cell-based; details: Bacillus anthracis
[9] = system: B. anthracis Vollum1B; assay: microbe, parasite or virus in culture; format: cell-based; details: Bacillus anthracis
[10] = system: CHO-K1; details: Chinese hamster
[11] = system: E. faecium 494; assay: microbe, parasite or virus in culture; format: cell-based; details: Enterococcus faecium
[12] = system: S. pneumoniae 157E; assay: animal or person; format: in vivo, mice; details: Streptococcus pneumoniae, 157E, in Mus musculus, 48 h, read-out: % survival; for responders at 5 mg/kg: sc
[13] = system: S. pneumoniae 157E; set-up: species or system mice; details: mouse, in vivo
[14] = system: S. pneumoniae 700905; set-up: species or system mice; details: mouse, in vivo
[15] = system: S. pneumoniae PBS1339; set-up: species or system mice; details: mouse, in vivo, po
[16] = system: Peptidoglycan synthesis of S. aureus RN450; assay: microbe, parasite or virus in culture; format: cell-based; details: Staphylococcus aureus
[17] = system: 16S rRNA; details: cited from earlier work
[18] = system: Protein synthesis of S. aureus RN450; assay: microbe, parasite or virus in culture; format: cell-based; details: Staphylococcus aureus
[19] = system: S. aureus RN450; assay: microbe, parasite or virus in culture; format: cell-based; details: Staphylococcus aureus
[20] = system: B. cereus 98/2658; assay: microbe, parasite or virus in culture; format: cell-based; details: Bacillus cereus
[21] = system: B. cereus 97/4144; assay: microbe, parasite or virus in culture; format: cell-based; details: Bacillus cereus
[22] = system: B. cereus 98/2620; assay: microbe, parasite or virus in culture; format: cell-based; details: Bacillus cereus
[23] = system: B. cereus 95/3032; assay: microbe, parasite or virus in culture; format: cell-based; details: Bacillus cereus

SMILES | MIC [2] [µg/mL] | MIC [3] [µg/mL] | Tox50 [4] [µg/mL] | MIC [5] [µg/mL] | MIC [6] [µg/mL] | MIC [7] [µg/mL] | MIC [8] [µg/mL] | MIC [9] [µg/mL] | Tox50 [10] [µg/mL] | MIC [11] [µg/mL] | responders at 5 mg/kg [12] [%] | other results
Cc1c2c(c(O)c3c(O)ccc(Cl)c13)C(=O)C1(O)C(=O)C(C(N)=O)=C(O)C(N(C)C)C1C2 (stereo not drawn) [4-epi-anhydrochlorotet] | – | – | – | – | – | – | – | – | – | – | – | inhibition of protein synthesis in words [1]: weak effects
CC(C)c1cc(CN2CC=CCC2)c(O)c2c1C[C@H]1C[C@H]3[C@H](N(C)C)C(O)=C(C(N)=O)C(=O)[C@@]3(O)C(O)=C1C2=O [AF] | 0.06 (≈ 0.109 µM) | 0.13 (≈ 0.236 µM) | >100 | 0.13 (≈ 0.236 µM) | < 0.03 | < 0.03 | 0.06 (≈ 0.109 µM) | < 0.03 | >100 | 0.25 (≈ 0.453 µM) | – | –
CN(C)c1cc(CN2Cc3ccccc3C2)c(O)c2c1C[C@H]1C[C@H]3[C@H](N(C)C)C(O)=C(C(N)=O)C(=O)[C@@]3(O)C(O)=C1C2=O [AI] | 0.06 (≈ 0.102 µM) | 0.5 (≈ 0.849 µM) | >100 | 0.5 (≈ 0.849 µM) | < 0.03 | 0.06 (≈ 0.102 µM) | 0.12 (≈ 0.204 µM) | < 0.03 | >100 | 0.5 (≈ 0.849 µM) | 40 | responders at 10 mg/kg ([12]; po): 0%
CN(C)c1cc(CN2CCC3CCCCC3C2)c(O)c2c1C[C@H]1C[C@H]3[C@H](N(C)C)C(O)=C(C(N)=O)C(=O)[C@@]3(O)C(O)=C1C2=O (stereo partly drawn) [AJ] | 0.06 (≈ 0.0986 µM) | 0.5 (≈ 0.821 µM) | >100 | 0.5 (≈ 0.821 µM) | < 0.03 | < 0.03 | < 0.03 | < 0.03 | >100 | 0.5 (≈ 0.821 µM) | 100 | responders at 50 mg/kg ([12]; po): 80%
COc1ccc(-c2cc(CNC(C)CF)c(O)c3c2C[C@H]2C[C@H]4[C@H](N(C)C)C(O)=C(C(N)=O)C(=O)[C@@]4(O)C(O)=C2C3=O)cn1 (stereo partly drawn) [AM] | 0.06 (≈ 0.0983 µM) | 0.25 (≈ 0.409 µM) | >100 | 0.13 (≈ 0.213 µM) | 0.06 (≈ 0.0983 µM) | 0.06 (≈ 0.0983 µM) | 0.12 (≈ 0.197 µM) | 0.06 (≈ 0.0983 µM) | 92.85 | 0.25 (≈ 0.409 µM) | 100 | responders at 50 mg/kg ([12]; po): 0%
CC1(C)S[C@@H]2[C@H](NC(=O)[C@H](N)c3ccccc3)C(=O)N2[C@H]1C(=O)O [Ampicillin, reference compound] | – | – | – | – | – | – | – | – | – | – | – | PD50 ([13]; iv): 0.6 mg/kg; PD50 ([13]; po): 1.1 mg/kg; PD50 ([14]; iv): 43.7 mg/kg; PD50 ([14]; po): >50 mg/kg; PD50 [15]: 3.2 mg/kg
Cc1c2c(c(O)c3c(O)cccc13)C(=O)[C@]1(O)C(=O)C(C(N)=O)=C(O)[C@@H](N(C)C)[C@@H]1C2 [Anhydro-tetracycline, anhydrotetracycline, reference compound] | – | – | – | – | – | – | – | – | – | – | – | IC50 ([16]; read-out: Peptidoglycan synthesis IC50): 19.2 µg/mL (≈ 45 µM); IC90 ([16]; read-out: Peptidoglycan synthesis IC90): > 32 µg/mL; inhibition of protein synthesis in words [1]: weak effects; effect on reactivity of nucleotides within the 16S rRNA (chemical footprint) [17]: A similar effect was not seen; IC50 ([18]; read-out: Protein synthesis IC50): < 0.03 µg/mL; IC90 ([18]; read-out: Protein synthesis IC90): < 0.03 µg/mL; MIC [19]: 2 µg/mL (≈ 4.69 µM)
CO/N=C(\C(=O)N[C@@H]1C(=O)N2C(C(=O)O)=C(COC(C)=O)CS[C@H]12)c1csc(N)n1 [Cefotaxime] | – | – | – | – | – | – | – | – | – | – | – | MIC [20]: > 64 µg/mL; MIC [21]: 32 µg/mL (≈ 70.3 µM); MIC [22]: 64 µg/mL (≈ 141 µM); MIC [23]: > 64 µg/mL
